Test results: article PMC5708805, “Novel molecular imaging ligands targeting matrix metalloproteinases 2 and 9 for imaging of unstable atherosclerotic plaques” (PLoS ONE, 2017)

Key:
[1] = biological target: T1, MMP2 (Homo sapiens, UniProt P08253); test: In vitro fluorometric MMP inhibition assay (SensoLyte 520 MMP-2); assay type: biochemical; conditions: for IC50: mean ± SD of three independent experiments in duplicate; for Selectivity MMP1/MMP2: ratio of IC50 values, MMP1 IC50 divided by MMP2 IC50
T1 construct: purchased AnaSpec, San Jose, USA
T1 sequence (P08253 110-660): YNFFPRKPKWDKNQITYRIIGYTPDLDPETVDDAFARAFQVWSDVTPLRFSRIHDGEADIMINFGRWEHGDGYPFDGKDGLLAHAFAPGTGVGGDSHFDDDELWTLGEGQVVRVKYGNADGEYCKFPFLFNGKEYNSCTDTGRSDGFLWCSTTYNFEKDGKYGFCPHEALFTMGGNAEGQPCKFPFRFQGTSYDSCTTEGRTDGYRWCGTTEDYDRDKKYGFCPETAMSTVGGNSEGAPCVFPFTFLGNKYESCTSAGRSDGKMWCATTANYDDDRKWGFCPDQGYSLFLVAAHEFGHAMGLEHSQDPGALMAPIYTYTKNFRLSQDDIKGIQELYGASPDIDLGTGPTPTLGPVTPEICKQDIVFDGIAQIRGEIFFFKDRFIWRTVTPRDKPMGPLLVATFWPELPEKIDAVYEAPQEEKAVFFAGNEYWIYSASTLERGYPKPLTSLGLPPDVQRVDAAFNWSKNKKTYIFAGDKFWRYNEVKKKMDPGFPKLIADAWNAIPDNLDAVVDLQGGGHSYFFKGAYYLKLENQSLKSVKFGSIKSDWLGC
Procedure: (§1) The inhibitory potency and selective binding of MMP-ligands was investigated by examining their capacity to block MMP1, MMP2 and MMP9 activity, using in vitro fluorometric assays (SensoLyte^TM 520 MMP-1, SensoLyte^TM 520 MMP-2, SensoLyte^TM 520 MMP-9; AnaSpec, San Jose, USA). Assay buffer was warmed to 37°C and used to dilute the reference inhibitor N-isobutyl-N-(4-methoxyphenylsulfonyl)glycyl hydoxamic acid (NNGH 1:100), calibration standard (1:50), substrate and enzyme (1:60). Components were loaded into a 96-well plate. MMP ligands 10a-d were also aliquoted to the respective 96-well plate at varying concentrations (10pM, 100pM, 1nM, 10nM, 100nM, 1μM, 10 μM and 100 μM), followed by incubation at 37°C for 30 minutes. Reactions were initiated by addition of the substrate to the respective wells, after which fluorescence generated was measured using a microplate reader (Synergy HT Multi-detection Microplate Reader, BioTek, […]) continuously for 30 minutes at 60 second intervals. Data analysis was conducted using Sigma Plot and Microsoft Excel.

[2] = biological target: T2, MMP1 (Homo sapiens, UniProt P03956); test: In vitro fluorometric MMP inhibition assay (SensoLyte 520 MMP-1); assay type: biochemical; conditions: mean ± SD of three independent experiments in duplicate
T2 construct: purchased AnaSpec, San Jose, USA
T2 sequence (P03956 100-469): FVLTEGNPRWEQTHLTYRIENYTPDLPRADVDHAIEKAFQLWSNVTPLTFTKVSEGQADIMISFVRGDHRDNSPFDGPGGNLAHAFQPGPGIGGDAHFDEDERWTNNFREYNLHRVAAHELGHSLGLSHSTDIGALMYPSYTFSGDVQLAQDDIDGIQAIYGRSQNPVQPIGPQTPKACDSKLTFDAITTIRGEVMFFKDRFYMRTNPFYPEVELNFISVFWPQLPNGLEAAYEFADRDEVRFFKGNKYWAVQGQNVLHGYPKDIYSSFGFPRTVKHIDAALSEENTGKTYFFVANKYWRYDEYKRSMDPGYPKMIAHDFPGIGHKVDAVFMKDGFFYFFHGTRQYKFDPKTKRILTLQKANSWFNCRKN
Procedure: as §1

[3] = biological target: T3, MMP9 (Homo sapiens, UniProt P14780); test: In vitro fluorometric MMP inhibition assay (SensoLyte 520 MMP-9); assay type: biochemical; conditions: for IC50: mean ± SD of three independent experiments in duplicate; for Selectivity MMP1/MMP9: ratio of IC50 values, MMP1 IC50 divided by MMP9 IC50
T3 construct: purchased AnaSpec, San Jose, USA
Procedure: as §1

[4] = In vivo biodistribution after intravenous injection in healthy mice; conditions: healthy C57BL/6 mice
Procedure: All experiments were approved by the institutional committee for animal experiments at the Academic Medical Center. C57BL/6 female mice (14–16 week) were purchased from Harlan and housed in the animal care facility at the Academic Medical Center. Animals were anesthetized using 126 mg ketamine, 100 μg dexdomitor, 500 μg atropine, 7.5 mL NaCl 0.9% of which 0.015 mL/g body weight was administered by intraperitoneal injection. In order to investigate the in vivo biodistribution of MMP ligand [^123I]10c, 4 MBq was administered intravenously in the tail vein and allowed to circulate for either 5, 15, 30, 60 minutes or 2, 3, 4, 6 and 24 hours (n = 3–4 animals for each time point). At the end of each circulation time, animals were sacrificed by bleeding through phosphate buffered saline solution (PBS) perfusion. After the animals were sacrificed, whole blood was collected by cardiac puncture, and selected organs were excised (heart, lungs, liver and kidneys). The organs were weighed and radioactivity was measured using a scintillation counter (TRT-CARB 2000CA, Perkin Elmer 1987). The measured radioactivity was expressed as the percentage of the injected dose per gram of tissue per gram of body weight (% ID/g/g).
The biodistribution of [^123I]10c was investigated following intravenous infusion of 4 MBq in healthy C57BL/6 mice. Following the bolus injection, the compound was allowed to circulate for 5, 15, 30, 60 minutes, 2, 3, 4, 6 and 24 hours. […] In the blood, stabilization of the compound was reached after at least 1 hour of circulation.
Fig 5 Biodistribution of [^123I]10c following intravenous infusion in healthy mice (n = 3–4 /group). Injected dose (ID) of radioactivity was measured in fat (A), muscle (B), liver (C), kidney (D), spleen (E), blood (F), heart (G) and lung (H) at varying time-points after injection. Values shown are mean ± SEM.

[5] = test system: atherosclerotic lesions containing MMP2 and MMP9; test: In vivo binding to atherosclerotic plaques (ex vivo storage phosphor imaging of aortic arch, MMP2/9 immunohistochemistry); parameters: species or system ApoE-/- mice; conditions: 40 MBq i.v.
Procedure: To investigate selective binding of [^123I]10c to MMP2/9 found in atherosclerotic lesions, we examined the distribution of the [^123I]10c in 8–10 week old female ApoE-/- mice (n = 5, Charles River) that were fed a high fat Western diet (15% fat, 0.25% cholesterol; Arie Blok Diervoeding, Netherlands) for 4 weeks. These animals subsequently developed atherosclerotic plaques. 40 MBq of [^123I]10c were administered by intravenous injection in the tail vein and allowed to circulate for […]. Animals were euthanized by bleeding via PBS infusion. The aortic arch was excised and 10 μm serial sections were made. Aortic arch sections were placed on a phosphor imaging plate (Fuji) and the amount of radioactivity was measured using a storage phosphor imaging apparatus (Typhoon Trio; GE Healthcare Life Sciences). Sections were then stained with hematoxylin/eosin staining, or used for MMP2 and MMP9 detection. Prior to incubation with monoclonal goat-anti-mouse MMP2 (R&D Systems) and rabbit-anti-mouse MMP9 (Abcam), the sections were heated to improve antigen retrieval. Rabbit-anti-goat secondary antibodies (DAKO) were utilized on the MMP2 sections. Thereafter, all sections were probed with the PowerVision anti-rabbit polymer, conjugated to horseradish peroxidase (Immunologic), to reveal positive primary antibody binding by means of chromogen conversion of 3,3’-diaminobenzidine (DAB), followed by nuclear counterstaining with hematoxylin. Histological sections were imaged with a bright-field microscope. […]
To validate the efficacy of [^123I]10c as an appropriate tracer for detection of atherosclerotic plaques, we examined the in vivo uptake of this ligand in ApoE-/- mice that were fed a high-fat diet. […] 40 MBq of [^123I]10c was administered intravenously and allowed to circulate for 3 hours, after which the animals were euthanized and the aortic arch was excised for measuring radioactivity by storage phosphor imaging.
Fig 6 Binding of [^123I]10c to atherosclerotic lesions containing MMP2 and MMP9. […] The region with highest apparent radioactivity has been outlined. […]

T3 sequence (P14780 94-707, species assumed): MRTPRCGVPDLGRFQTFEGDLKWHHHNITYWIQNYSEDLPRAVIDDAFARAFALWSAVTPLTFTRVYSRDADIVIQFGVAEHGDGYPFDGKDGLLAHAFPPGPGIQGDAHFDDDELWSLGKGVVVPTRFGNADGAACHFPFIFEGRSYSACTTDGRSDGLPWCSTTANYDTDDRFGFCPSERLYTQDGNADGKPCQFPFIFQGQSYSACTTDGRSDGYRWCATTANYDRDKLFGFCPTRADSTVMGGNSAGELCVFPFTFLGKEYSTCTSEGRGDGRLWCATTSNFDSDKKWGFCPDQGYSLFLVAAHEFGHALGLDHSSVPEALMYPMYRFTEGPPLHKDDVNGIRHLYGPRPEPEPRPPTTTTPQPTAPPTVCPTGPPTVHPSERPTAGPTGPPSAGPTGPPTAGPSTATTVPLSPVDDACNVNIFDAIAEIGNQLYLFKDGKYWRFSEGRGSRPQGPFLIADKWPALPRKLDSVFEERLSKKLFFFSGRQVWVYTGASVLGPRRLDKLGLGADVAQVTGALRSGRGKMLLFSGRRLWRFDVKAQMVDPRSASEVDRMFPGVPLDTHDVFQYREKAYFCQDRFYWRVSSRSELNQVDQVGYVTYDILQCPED

O=C(O)CN(CC(=O)NO)S(=O)(=O)c1ccccc1 [Compound 4a, 2-(N-(2(hydroxyamino)-2-oxoethyl)phenylsulfonamido) acetic acid]
IC50 [1]: 39 ± 0.16 nM
Selectivity MMP1/MMP2 [1]: 1.31
IC50 [2]: 51 ± 0.1 nM
IC50 [3]: 14 ± 1.05 nM
Selectivity MMP1/MMP9 [3]: 3.64

O=C(O)CN(CC(=O)NO)S(=O)(=O)c1ccc(F)cc1 [Compound 4b, 2-(4-fluoro-N-(2-hydroxyamino)-2oxoethyl)phenylsufonamido acetic acid]
IC50 [1]: 12 ± 0.17 nM
Selectivity MMP1/MMP2 [1]: 6.25
IC50 [2]: 75 ± 0.15 nM
IC50 [3]: 21 ± 0.19 nM
Selectivity MMP1/MMP9 [3]: 3.57

O=C(O)CN(CC(=O)NO)S(=O)(=O)c1ccc(I)cc1 [Compound 4c, 2-(4-Iodo-N-(2-hydroxyamino)-2-oxoethyl) phenylsufonamido acetic acid]
IC50 [1]: 27 ± 1 nM
Selectivity MMP1/MMP2 [1]: 2.19
IC50 [2]: 59 ± 0.17 nM
IC50 [3]: 11 ± 1.14 nM
Selectivity MMP1/MMP9 [3]: 5.36

O=C(O)CN(CC(=O)NO)S(=O)(=O)c1ccc(Br)cc1 [Compound 4d, 2-(4-bromo-N-(2-hydroxyamino)-2-oxoethyl) phenylsufonamido acetic acid]
IC50 [1]: 19 ± 0.19 nM
Selectivity MMP1/MMP2 [1]: 3.32
IC50 [2]: 63 ± 0.13 nM
IC50 [3]: 23 ± 0.21 nM
Selectivity MMP1/MMP9 [3]: 2.74

O=C(O)CN(CC(=O)NO)S(=O)(=O)c1ccc(Cl)cc1 [Compound 4e, 2-(4-chloro-N-(2-hydroxyamino)-2-oxoethyl)phenylsufonamido acetic acid]
IC50 [1]: 41 ± 0.19 nM
Selectivity MMP1/MMP2 [1]: 1.49
IC50 [2]: 61 ± 0.11 nM
IC50 [3]: 18 ± 0.16 nM
Selectivity MMP1/MMP9 [3]: 3.39

O=C(O)CN(CC(=O)NO)S(=O)(=O)c1ccc(Oc2ccccc2)cc1 [Compound 10a, ([4-Phenoxy-benzenesulphonyl]-hydroxycarbamoylmethyl-amino) acetic acid]
Selectivity MMP1/MMP2 [1]: 884
Selectivity MMP1/MMP9 [3]: 387

O=C(O)CN(CC(=O)NO)S(=O)(=O)c1ccc(Oc2ccc(F)cc2)cc1 [Compound 10b]
Selectivity MMP1/MMP2 [1]: 3.60 x 10^4
Selectivity MMP1/MMP9 [3]: 1.74 x 10^4

O=C(O)CN(CC(=O)NO)S(=O)(=O)c1ccc(Oc2ccc(I)cc2)cc1 [Compound 10c, ([4-(4-Iodo-phenoxy)-benzenesulphonyl]-hydroxycarbamoylmethyl-amino) acetic acid]
IC50 [1]: 0.87 ± 0.4 nM
Selectivity MMP1/MMP2 [1]: 1.05 x 10^3
IC50 [2]: 910 ± 560 nM
IC50 [3]: 1.95 ± 1.1 nM
Selectivity MMP1/MMP9 [3]: 467

O=C(O)CN(CC(=O)NO)S(=O)(=O)c1ccc(Oc2ccc(Br)cc2)cc1 [Compound 10d, ([4-(4-Bromo-phenoxy)-benzenesulphonyl]-hydroxycarbamoylmethyl-amino) acetic acid]
IC50 [1]: 7.64 ± 1.43 nM
Selectivity MMP1/MMP2 [1]: 173
IC50 [2]: 1320 ± 790 nM
IC50 [3]: 1.61 ± 1.41 nM
Selectivity MMP1/MMP9 [3]: 820

O=C(O)CN(CC(=O)NO)S(=O)(=O)c1ccc(Oc2ccc([123I])cc2)cc1 [[^123I]10c, ([4-(4-[^123I]Iodophenoxy)benzenesulphonyl]hydroxycarbamoylmethylamino) acetic acid]
circulation time until stabilization of the compound in blood ([4]; 4 MBq i.v. bolus): at least 1 hour
tissues with highest radioactivity (biodistribution) ([4]; 4 MBq i.v., 5 min to 24 h): highest in the liver and blood
accumulation in fat (biodistribution) ([4]; 4 MBq i.v., 5 min to 24 h, relative to other tissues): lowest
tracer uptake in diseased regions of the vessel wall ([5]; ApoE-/- mice on high-fat diet, storage phosphor imaging): relatively high
uptake in atherosclerotic lesions of the aortic arch ([5]; ApoE-/- mice on high-fat diet, storage phosphor imaging of excised aortic arch): detectable
relation of tracer uptake to MMP2 and MMP9 immunohistochemical staining in lesions ([5]; ApoE-/- mice, consecutive aortic arch sections): co-localizing
